Measured values reported in PubChem BioAssay (NCI).
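In this assay, cells in 96-well plates receive the compound at five concentrations for 48 hours. Endpoints are linearly interpolated between the surrounding concentrations. GI50: concentration for 50% inhibition of growth. TGI is the concentration that stops growth completely.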

Key:
Experiment in all cases: NCI anticancer screen, dose series, 48 h
HCT-116 colon = system: HCT-116 colon
HCC-2998 colon = system: HCC-2998 colon
COLO 205 colon = system: COLO 205 colon
IGROV1 ovarian = system: IGROV1 ovarian
SF-539 CNS = system: SF-539 CNS
HS 578T breast = system: HS 578T breast
U251 CNS = system: U251 CNS
HL-60(TB) leukemia = system: HL-60(TB) leukemia
EKVX NSCLC = system: EKVX NSCLC
NCI-H23 lung = system: NCI-H23 lung

**Q.** CCN(CC)c1ccc(CNc2cc(C)nc3ccc(OC)cc23)cc1 was tested. Which GI50 (HCT-116 colon) did it give?
**A.** 2.34 µM

**Q.** What about the TGI (HCT-116 colon) of the same compound?
**A.** 7.76 µM

**Q.** What about the GI50 (HCC-2998 colon) of the same compound?
**A.** 1.77 µM

**Q.** What about the TGI (HCC-2998 colon) of the same compound?
**A.** 3.32 µM

**Q.** What about the GI50 (COLO 205 colon) of the same compound?
**A.** 1.31 µM

**Q.** What about the TGI (COLO 205 colon) of the same compound?
**A.** 2.76 µM

**Q.** What about the GI50 (IGROV1 ovarian) of the same compound?
**A.** 4.05 µM

**Q.** What about the TGI (IGROV1 ovarian) of the same compound?
**A.** 19.2 µM

**Q.** What about the GI50 (SF-539 CNS) of the same compound?
**A.** 2.22 µM

**Q.** What about the TGI (SF-539 CNS) of the same compound?
**A.** 4.36 µM

**Q.** What about the GI50 (HS 578T breast) of the same compound?
**A.** 2.32 µM

**Q.** And the TGI (HS 578T breast)?
**A.** 6.73 µM

**Q.** What about the GI50 (U251 CNS) of the same compound?
**A.** 2.04 µM

**Q.** And the TGI (U251 CNS)?
**A.** 4.3 µM

**Q.** What about the GI50 (HL-60(TB) leukemia) of the same compound?
**A.** 1.6 µM

**Q.** And the TGI (HL-60(TB) leukemia)?
**A.** 4.23 µM

**Q.** And the GI50 (EKVX NSCLC)?
**A.** 3.14 µM

**Q.** What about the TGI (EKVX NSCLC) of the same compound?
**A.** 15.3 µM

**Q.** And the GI50 (NCI-H23 lung)?
**A.** 2.7 µM

**Q.** And the TGI (NCI-H23 lung)?
**A.** 9.8 µM

**Q.** How did the TGI (HCT-116 colon) turn out when COC1=CC(=O)c2c(O)c3c(c(O)c2C1=O)OC1(Oc2c(cc4cc(C)oc(=O)c4c2O)CC1O)C3O (stereo not drawn) was run?
**A.** > 100 µM

**Q.** And the TGI (HCC-2998 colon)?
**A.** 63.8 µM

**Q.** And the TGI (COLO 205 colon)?
**A.** > 100 µM

**Q.** What about the TGI (IGROV1 ovarian) of the same compound?
**A.** 66.5 µM

**Q.** And the TGI (SF-539 CNS)?
**A.** > 100 µM

**Q.** What about the TGI (HS 578T breast) of the same compound?
**A.** > 100 µM

**Q.** And the TGI (U251 CNS)?
**A.** > 100 µM

**Q.** What about the TGI (HL-60(TB) leukemia) of the same compound?
**A.** > 100 µM

**Q.** And the TGI (EKVX NSCLC)?
**A.** 57 µM

**Q.** What about the TGI (NCI-H23 lung) of the same compound?
**A.** > 100 µM

**Q.** For Cc1ccccc1NC(=O)N/C(N)=N/c1nc(C)c(C)s1, which GI50 (HCT-116 colon) is on record?
**A.** 0.321 µM

**Q.** What about the TGI (HCT-116 colon) of the same compound?
**A.** > 75.9 µM

**Q.** And the GI50 (HCC-2998 colon)?
**A.** 0.712 µM

**Q.** And the TGI (HCC-2998 colon)?
**A.** > 100 µM

**Q.** And the GI50 (COLO 205 colon)?
**A.** 0.295 µM

**Q.** And the GI50 (IGROV1 ovarian)?
**A.** 0.35 µM

**Q.** What about the TGI (IGROV1 ovarian) of the same compound?
**A.** > 100 µM

**Q.** What about the GI50 (SF-539 CNS) of the same compound?
**A.** 0.254 µM

**Q.** And the TGI (SF-539 CNS)?
**A.** 4.38 µM

**Q.** What about the GI50 (HS 578T breast) of the same compound?
**A.** 0.488 µM

**Q.** And the TGI (HS 578T breast)?
**A.** > 100 µM

**Q.** What about the GI50 (U251 CNS) of the same compound?
**A.** 0.305 µM

**Q.** What about the TGI (U251 CNS) of the same compound?
**A.** > 46.6 µM

**Q.** What about the GI50 (HL-60(TB) leukemia) of the same compound?
**A.** 0.235 µM

**Q.** And the TGI (HL-60(TB) leukemia)?
**A.** > 100 µM

**Q.** And the GI50 (EKVX NSCLC)?
**A.** 0.542 µM

**Q.** And the TGI (EKVX NSCLC)?
**A.** > 100 µM

**Q.** And the GI50 (NCI-H23 lung)?
**A.** 0.519 µM

**Q.** And the TGI (NCI-H23 lung)?
**A.** > 100 µM

**Q.** How did the GI50 (HCT-116 colon) turn out when C=C(C)[C@@H]1CC[C@]2(C(=O)N3CCN(C)CC3)CC[C@]3(C)[C@H](CC[C@@H]4[C@@]5(C)C/C(=C/c6ccncc6)[C@H](O)C(C)(C)[C@@H]5CC[C@]43C)[C@@H]12 was run?
**A.** 1.6 µM

**Q.** What about the TGI (HCT-116 colon) of the same compound?
**A.** 4.46 µM

**Q.** What about the GI50 (HCC-2998 colon) of the same compound?
**A.** 3.36 µM

**Q.** What about the TGI (HCC-2998 colon) of the same compound?
**A.** 13.1 µM

**Q.** What about the GI50 (COLO 205 colon) of the same compound?
**A.** 3.16 µM

**Q.** And the TGI (COLO 205 colon)?
**A.** 23 µM

**Q.** What about the GI50 (IGROV1 ovarian) of the same compound?
**A.** 6.62 µM

**Q.** And the TGI (IGROV1 ovarian)?
**A.** 37.7 µM

**Q.** And the GI50 (SF-539 CNS)?
**A.** 4.12 µM

**Q.** And the TGI (SF-539 CNS)?
**A.** 16.5 µM

**Q.** And the GI50 (HS 578T breast)?
**A.** 11.6 µM

**Q.** And the TGI (HS 578T breast)?
**A.** > 100 µM

**Q.** And the GI50 (U251 CNS)?
**A.** 5.64 µM

**Q.** What about the TGI (U251 CNS) of the same compound?
**A.** 19.6 µM

**Q.** What about the GI50 (HL-60(TB) leukemia) of the same compound?
**A.** 2.29 µM

**Q.** What about the TGI (HL-60(TB) leukemia) of the same compound?
**A.** 5.58 µM

**Q.** And the GI50 (EKVX NSCLC)?
**A.** 6.04 µM

**Q.** What about the TGI (EKVX NSCLC) of the same compound?
**A.** 43.2 µM

**Q.** And the GI50 (NCI-H23 lung)?
**A.** 8.73 µM

**Q.** And the TGI (NCI-H23 lung)?
**A.** > 100 µM

**Q.** What does the source list for COc1ccc(-c2c(-c3cc4c(c(OC)c3OC)OCO4)noc2N)cc1?
**A.** GI50 (HCT-116 colon): 0.34 µM; TGI (HCT-116 colon): 15.9 µM; GI50 (HCC-2998 colon): 0.575 µM; TGI (HCC-2998 colon): 6.96 µM; GI50 (COLO 205 colon): 0.277 µM; TGI (COLO 205 colon): 1.25 µM; GI50 (IGROV1 ovarian): 1.1 µM; TGI (IGROV1 ovarian): > 100 µM; GI50 (SF-539 CNS): 0.32 µM; GI50 (HS 578T breast): 0.365 µM; TGI (HS 578T breast): > 100 µM; GI50 (U251 CNS): 0.417 µM; TGI (U251 CNS): > 100 µM; GI50 (HL-60(TB) leukemia): 0.214 µM; TGI (HL-60(TB) leukemia): 1.46 µM; GI50 (EKVX NSCLC): 4.12 µM; TGI (EKVX NSCLC): > 100 µM; GI50 (NCI-H23 lung): 0.427 µM; TGI (NCI-H23 lung): > 100 µM

**Q.** With COc1cc(/C=C/C(=O)c2ccc(F)cc2)ccc1OCCCCOc1cc2c(cc1OC)C(=O)N1CCCC1C=N2 (stereo not drawn) as the compound, how does the GI50 (HCT-116 colon) read?
**A.** 0.618 µM

**Q.** And the TGI (HCT-116 colon)?
**A.** 6.09 µM

**Q.** And the GI50 (HCC-2998 colon)?
**A.** 0.674 µM

**Q.** And the TGI (HCC-2998 colon)?
**A.** 9.61 µM

**Q.** And the GI50 (COLO 205 colon)?
**A.** 2.11 µM

**Q.** What about the TGI (COLO 205 colon) of the same compound?
**A.** 9.19 µM

**Q.** What about the GI50 (IGROV1 ovarian) of the same compound?
**A.** 1.83 µM

**Q.** What about the TGI (IGROV1 ovarian) of the same compound?
**A.** 3.59 µM

**Q.** And the GI50 (SF-539 CNS)?
**A.** 0.641 µM

**Q.** And the TGI (SF-539 CNS)?
**A.** 1.62 µM

**Q.** And the GI50 (HS 578T breast)?
**A.** 0.336 µM

**Q.** And the TGI (HS 578T breast)?
**A.** 9.36 µM

**Q.** What about the GI50 (U251 CNS) of the same compound?
**A.** 0.704 µM

**Q.** What about the TGI (U251 CNS) of the same compound?
**A.** 7.85 µM

**Q.** What about the GI50 (HL-60(TB) leukemia) of the same compound?
**A.** 0.477 µM

**Q.** And the TGI (HL-60(TB) leukemia)?
**A.** 1.21 µM

**Q.** What about the GI50 (EKVX NSCLC) of the same compound?
**A.** 4.05 µM

**Q.** And the TGI (EKVX NSCLC)?
**A.** > 34.9 µM

**Q.** And the GI50 (NCI-H23 lung)?
**A.** 1.47 µM

**Q.** And the TGI (NCI-H23 lung)?
**A.** > 23.5 µM

**Q.** C/C(=N\N)C(CN1CCCCC1)C(c1ccccc1)c1c(O)c2ccccc2oc1=O (stereo not drawn) was tested. Which TGI (HCT-116 colon) did it give?
**A.** > 100 µM

**Q.** What about the TGI (HCC-2998 colon) of the same compound?
**A.** > 100 µM

**Q.** And the TGI (COLO 205 colon)?
**A.** > 100 µM

**Q.** And the TGI (IGROV1 ovarian)?
**A.** > 100 µM

**Q.** And the TGI (SF-539 CNS)?
**A.** > 100 µM

**Q.** And the TGI (HS 578T breast)?
**A.** > 100 µM

**Q.** What about the TGI (U251 CNS) of the same compound?
**A.** > 100 µM

**Q.** And the TGI (HL-60(TB) leukemia)?
**A.** > 100 µM

**Q.** And the TGI (EKVX NSCLC)?
**A.** > 100 µM

**Q.** And the TGI (NCI-H23 lung)?
**A.** > 100 µM
